# Data as given in publication PMC7496275, “Pentathiepins: A Novel Class of Glutathione Peroxidase 1 Inhibitors that Induce Oxidative Stress, Loss of Mitochondrial Membrane Potential and Apoptosis in Human Cancer Cells” (Chemmedchem, 2020).
# What was measured:
# [1] = tested on: Gumbus cells; experiment: MTT cell viability assay; format: cell-based, human; details: 48 h
# Description: (§1) We determined IC50 values for the viability reduction in a low micro molar range (Figure 6B).
# (§2) MTT cell viability assay: For the detection of the inhibition of the viability of cells by the pentathiepins, the MTT‐viability assay was used.37 Briefly, 10 000 and 20 000 cells for the suspension cell lines HL‐60 and Gumbus, respectively, were seeded out in 50 μL medium per well and immediately exposed to the compounds. For the adherent cell lines SISO and HAP‐1, 3000 and 5000 cells, respectively, were seeded out in 96‐well plates and allowed to attach for 24 h. Cells were exposed to nine serial dilutions of compound, added to the medium from 1000‐fold concentrated stock solution in DMF. For the controls, cells were exposed to 0.1 % DMF alone. After 48 h incubation, 20 μL of the MTT stock solution (2.5 mg/mL in PBS) were added to each well to give a final concentration of 1.0 mM. The formazan crystals that formed after 4 h at 37 °C were dissolved by sonification after adding 100 μL of 0.04 M HCl in isopropanol for the suspension cell lines, or with 50 μL DMSO after aspiration of the medium for the adherent cell lines. Optical density was measured with a SpectraMax Plus 383 microtiter plate read at λ=570 nm (Molecular Devices, USA). Data of related absorption to control cells were imported into GraphPad Prism 6.0 software and IC50 values were generated by determining the inflection point of the sigmoidal log concentration‐viability inhibition curves.
# [2] = tested on: HAP-1 cells; experiment: MTT cell viability assay; format: cell-based, human
# Description: as §1, §2
# [3] = tested on: SISO cells; experiment: MTT cell viability assay; format: cell-based, human; details: 48 h
# Description: as §1, §2
# [4] = tested on: HL-60 cells; experiment: MTT cell viability assay; format: cell-based; details: Homo sapiens, 48 h, read-out: IC50 for viability reduction
# Description: as §1
# as §2, with “Data of related absorption to control cells were imported into GraphPad Prism 6.0 software and IC50 values were generated by determining the inflection point of the sigmoidal log concentration‐viability inhibition curves.” left out
# [5] = tested on: HL-60 cells; experiment: Cell morphology after incubation; format: cell-based, human; details: 25 μM, 6 h
# [6] = tested on: Gumbus cells; experiment: Detection of reactive oxygen species (DCF-DA flow cytometry); format: cell-based, human; details: 25 μM, 10 min
# Description: (§3) It has long been observed that pentathiepins are able to produce reactive oxygen species outside of cells.16, 17, 20 Whether ROS production can also occur in living cells has not yet been reported. To determine if 4 can produce ROS in HL‐60 and Gumbus cells, the cytosolic ROS detector 2′,7′‐dichlorofluorescin diacetate (DCF−DA) was used. […] Thus, pentathiepins appear capable of generating ROS inside living cells within a very short period of time.
# (§4) Detection of reactive oxygen species: To detect cellular reactive oxygen species (ROS) a flow cytometry technique based on the use of the ROS‐sensor 2′,7′‐dichlorofluorescin diacetate (DCF‐DA) was used.38 Briefly, cells were collected in reaction tubes and washed with 500 μL phosphate buffered saline (PBS). The cell pellets were resuspended in 1 mL PBS and stained with 2 μL DCF‐DA stock solution (10 mM in DMSO) for 30 min at 37 °C. Then cells were washed with 500 μL PBS and suspended in 1 mL PBS followed by addition of […] 4 ([…]) to a final concentration of 25 μM. After an incubation period of 10 min cells were washed with PBS, resuspended in 500 μL PBS and analyzed by flow cytometry with a MACSQuant Analyzer 10 (Miltenyi Biotec, Germany) set at λ Ex/Em=488/530 nm.
# [7] = tested on: HL-60 cells; experiment: as above; format: cell-based, human; details: 25 μM, 10 min
# Description: as §3, §4
# [8] = tested on: Gumbus cells; experiment: Apoptosis staining with Annexin-V/PI (flow cytometry); format: cell-based, human
# Description: (§5) To determine whether the loss in viability by 4 is caused by apoptosis, a flow cytometric analysis with Annexin‐V−FITC and PI‐stained cells was used. Early apoptotic cells undergo a translocation of phosphatidyl serine from the inner to the outer cell membrane monitored by Annexin‐V−FITC. Late apoptotic or necrotic cells also show a loss of cell membrane integrity verifiable by PI. Cells were exposed to 4 in multiple concentrations of the viability inhibition IC50 for 6 and 24 h.
# (§6) Apoptosis staining with Annexin‐V/PI: For the apoptosis measurement, the translocation of phosphatidyl serine from the inner to the outer membrane by Annexin‐V and PI double staining was used.41 The protocol of the manufacturer (Miltenyi Biotec, Germany) of the “Annexin‐V‐FITC Apoptosis Detection Kit” was followed. In brief, 500,000 cells were seeded into 6‐well plates and exposed to 4 at multiple concentrations of the viability IC50 for 6 and 24 h. Afterwards, the cells were collected in reaction tubes, washed with the binding buffer belonging to the Annexin‐V‐Kit and stained with Annexin‐V‐FITC for 10 min. After repeated washing steps, the PI solution was added to the cells and followed by the flow cytometry investigation analyses at λ ex/em=488/525±50 nm for FITC and λ ex/em=488/655–730 nm for PI with a MACSQuant Analyzer 10 (Miltenyi Biotec).
# [9] = tested on: HL-60 cells; experiment: as above; format: cell-based, human; details: multiples of viability IC50, 24 h
# Description: as §5, §6
# [10] = tested on: SISO cell line; experiment: MTT viability with ferrostatin-1 co-treatment (ferroptosis probe); format: cell-based, human; details: ferrostatin-1 1.5-6.0 μM, MTT 48 h
# Description: Another form of programmed cell death is ferroptosis, which is iron dependent and activated by lipid peroxidation (LPO) in the cell membrane.14 Unlike apoptosis, PARP cleavage is not observed in this cell death mechanism. GPx4, a membrane bound isoenzyme of GPx1, is believed to be a key protector of cells from ferroptosis by destroying lipid peroxides in the cell membrane.
# as §2, with “The formazan crystals that formed after 4 h at 37 °C were dissolved by sonification after adding 100 μL of 0.04 M HCl in isopropanol for the suspension cell lines, or with 50 μL DMSO after aspiration of the medium for the adherent cell lines.” left out, “Data of related absorption to control cells were imported into GraphPad Prism 6.0 software and IC50 values were generated by determining the inflection point of the sigmoidal log concentration‐viability inhibition curves.” left out
# [11] = Homo sapiens, MTT, read-out: IC50 for viability reduction
compound,measurement,setting,value
CCOc1c2c(c3cnc4cc(C)c(C)cc4n13)SSSSS2 [Compound 4],cell viability at highest tested concentration,[1],complete loss of cell viability
same,IC50,[1]; [11],2.2 to 3.1 µM
same,cell viability at highest tested concentration,[2]; 48 h,complete loss of cell viability
same,IC50,"[2]; Homo sapiens, HAP1, 48 h, MTT, read-out: IC50 for viability reduction",2.2 to 3.1 µM
same,cell viability at highest tested concentration,[3],complete loss of cell viability
same,IC50,[3]; [11],2.2 to 3.1 µM
same,IC50,[4],6.9 µM
same,change in morphology,[5],membrane blebbing
same,ROS formation,[6],significant burst of ROS
same,ROS formation,[7],rapid but not as intense as with the Gumbus line
same,apoptotic population,"[8]; fourfold IC50 concentration, 6 h",nearly every cell was apoptotic
same,apoptotic population,"[8]; multiples of viability IC50, 6 h",significant increase of an apoptotic population
same,apoptotic population,[9],significant increase of an apoptotic population
same,change of IC50 on co-treatment with ferrostatin-1,[10],No significant changes in the IC50 value
